Laboratory results published in publication PMC12362618, “Development of the First Small-Molecule Inhibitor Targeting Oncostatin M for Treatment of Breast Cancer” (Journal of Medicinal Chemistry, 2025).
Values joined by “and” are separate entries in the source; they are usually repeats but may differ in a detail not shown here. Equal entries are not always repeated. “Also recorded” adds a separate entry of the source. Where two headings read alike, the source gives them in different places.

Tests used:
OSM = biological target: T1, OSM (Homo sapiens, UniProt P13725); experiment: Fluorescence quenching assay of SMI binding to OSM; details: average of three independent replicates, errors at 95% confidence level, read-out: KD (OSM-SMI dissociation constant)
T1 sequence (P13725 26-252): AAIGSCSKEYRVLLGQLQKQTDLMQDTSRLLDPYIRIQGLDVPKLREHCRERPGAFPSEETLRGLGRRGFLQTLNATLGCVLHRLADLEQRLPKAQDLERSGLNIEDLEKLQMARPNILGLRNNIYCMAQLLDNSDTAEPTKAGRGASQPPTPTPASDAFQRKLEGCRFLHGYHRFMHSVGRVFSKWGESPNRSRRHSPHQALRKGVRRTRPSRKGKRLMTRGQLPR
Experimental: To perform fluorescence quenching assays, 2 mL of 1 μM OSM solution in polymethylmethacrylate cuvettes was prepared by dilution of a concentrated stock solution of recombinant OSM with buffer solution (100 mM sodium chloride, 50 mM sodium phosphate, 50 mM freshly added DTT, pH = 6.6). Cuvettes were titrated with 5 μL increments of a 1 mM small molecule stock solution in DMSO, with a cuvette titrated with an equivalent volume of DMSO as a control. […] In cases where little to no significant quenching was observed, the titration was supplemented with 2.5 μL increments of a 10 mM small molecule stock solution to increase the concentration delivered. The fluorescence intensity measurements were obtained on a Cary Eclipse spectrofluorometer equipped with a Xenon arc lamp. Fluorescence intensities were measured by exciting at 280 nm (4 nm slit width) and recording the emission from 345 to 355 nm with a photomultiplier tube voltage of 700 V, unless otherwise noted. Each titration point was normalized to OSM’s native fluorescence intensity, corrected by adding the decrease in fluorescence intensity caused by dilution with DMSO, and the average value of the three replicates for each point was plotted against concentration of small molecule delivered and fit to a modified Stern–Volmer function as described by Charlier and Plapp. Binding affinity (K D) values were obtained […] from the fitting routine. All curve-fitting analysis was performed in GraphPad Prism 8.0.

[1] = test system: OSM-induced pSTAT3 in T47D human breast cancer cells; experiment: pSTAT3 ELISA in T47D cells treated with OSM ± SMI; format: cell-based; details: for IC50: Homo sapiens
Experimental: To test the effect of SMIs in vitro, each SMI was incubated with OSM for a period of 1 h at 37 °C, and T47D and MDA-MB-231 human breast cancer cell lines were subsequently treated with OSM (10 ng/mL) and/or SMI-10 (10 μM) analogs for 30 min and measured for pSTAT3 levels via ELISA. The results of these assays are presented graphically in Figure and, for T47D cells, in Table as a percentage of reduction from +OSM alone. For phospho-STAT3 (pSTAT3) ELISAs, T47D MDA-MB-231, and MCF-7 cells were seeded in 12- or 24-well plates at 70–75% confluency and allowed to adhere overnight, after which cells were serum-starved with serum-free RPMI-1640 for 4 h. SMIs (10 μM in DMSO or serially diluted to specified concentrations from a 100 mM stock in DMSO) and human recombinant OSM (10 ng/mL; PeproTech; #300–10T-10UG) were incubated in serum-free RPMI-1640 medium for 1 h. After incubation, the SMI-10 analogs or SMI-10B13 and OSM were added to the serum-starved cells for 30 min. Immediately afterward, the cells were lysed using 1x PathScan Sandwich ELISA Lysis Buffer (Cell Signaling Technology; #7018S), collected, and stored at −20 °C. Lysates were analyzed for pSTAT3 levels using either the PathScan Phospho-STAT3 (Tyr705) Sandwich ELISA Antibody Pair kit (Cell Signaling Technology; #7146) or Human/Mouse Phospho-STAT3 (Y705) DuoSet IC ELISA (R&D Systems; DYC4607B), according to manufacture’s protocol. pSTAT3 expression was measured with absorbance at 450 nm and quantified by comparison relative to OSM-induced pSTAT3 levels. To calculate an IC50 for SMI-10B13, a standard curve was generated as described in the DuoSet IC ELISA datasheet to determine the concentration of pSTAT3.

15N OSM = biological target: T2, 15N OSM (Homo sapiens, UniProt P13725); experiment: 1H,15N HSQC NMR chemical shift perturbation titration; format: binding; details: 100 μM 15N OSM; residues Asp87, Gln90, Arg91, Leu92 at or near site III
T2 construct: ^15N-isotope-labeled OSM^1-187 protein was titrated individually with each of the SMIs; made in house
T2 sequence (P13725 26-212): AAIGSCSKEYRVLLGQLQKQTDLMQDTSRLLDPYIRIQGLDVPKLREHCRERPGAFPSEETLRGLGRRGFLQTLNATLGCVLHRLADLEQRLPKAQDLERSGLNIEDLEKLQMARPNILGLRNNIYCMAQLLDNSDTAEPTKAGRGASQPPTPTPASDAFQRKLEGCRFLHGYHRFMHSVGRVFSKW
Experimental: Protein was prepared and chemical shift perturbation (CSP) experiments were conducted as previously described by Mass et al. For SMI inhibitor titration studies, in a 5 mm NMR tube, 600 μL of a 100 μM sample of ^15N OSM in NMR buffer (50 mM sodium phosphate (pH 6.6), 100 mM sodium chloride, and 5% D2O) was titrated with a 20 mM stock solution of SMI in d6-dimethyl sulfoxide. The SMI stock solutions were added in 0.75–4 μL increments to a final concentration of 260 μM (SMI-10B) or 200 μM (SMI-10B13) and final volumes of 636 μL (SMI-10B) and 614.25 μL (SMI-10B13). Titration points for SMI-10B were: 0, 20, 40, 60, 80, 100, 140, 180, 220, and 260 μM. Titration points for SMI-10B13 were: 0, 0.5, 1.0, 6.0, 10, 20, 30, 40, 50, 60, and 200 μM.

[2] = test system: T47D and MCF-7 human breast cancer cells; experiment: MTS cell viability assay; format: cell-based; details: T47D and MCF-7; 100 μM to 0.1 nM, 24 h
Experimental: Cell viability was assessed using the CellTiter 96 AQueous One Solution Cell Proliferation Assay (Promega, cat. no. G3580), following the manufacturer’s instructions. Briefly, T47D and MCF-7 human breast cancer cells were seeded in 96-well plates at a density of 10,000 cells/well in 100 μL of complete growth medium and allowed to adhere overnight. Cells were then treated with a serial dilution (100 μM to 0.1 nM) of SMI-10B, SMI-10B13, Temozolomide (positive control), or vehicle (DMSO) for 24 h. Following treatment, 20 μL of MTS reagent was added directly to each well, and plates were incubated at 37 °C in a humidified incubator with 5% CO2 and imaged after 1 h of incubation. Absorbance was measured at 490 nm by using a microplate reader. Cell viability was expressed as a percentage relative to the vehicle-treated controls, and experiments were performed in triplicate.

[3] = T47D, SMI 10 μM + OSM 10 ng/mL, 30 min, ELISA, relative to +OSM, no-treatment blank subtracted

SMILES	Kd (OSM)	Relative pSTAT3 Levels (Table 1, SMI-10A-10J) [1, 3]	Relative pSTAT3 Levels (Table 2, SMI-10B analogs) [1, 3]	Inhibition of OSM-induced pSTAT3 via ELISA ([1]; T47D, SMI 10 μM, OSM 10 ng/mL, 30 min)	Chemical shift perturbation of 15N OSM on titration (15N OSM)	Cytotoxicity / cell viability via MTS assay [2]	IC50 ([1]; Figure S3 graph A (T47D by order), four parameter nonlinear regression, given as negative log value, read-out: LogIC50 (graph A) (converted))	IC50 ([1]; T47D cells, ELISA, read-out: IC50 for inhibition of STAT3 phosphorylation)	Relative pSTAT3 Levels (Table 2, SMI-10B analogs) ([1]; T47D, SMI 10 μM + OSM 10 ng/mL, 30 min, ELISA, relative to +OSM, no-treatment blank subtracted, listed as 10B13)
O=C(O)/C=C/c1cc(-c2ccc3c(c2)OCO3)c(-c2ccc3c(c2)OCO3)o1 [SMI-10B, (E)-3-(4,5-Bis(benzo[d][1,3]dioxol-5-yl)furan-2-yl)acrylic acid]	12.9 ± 1.5 µM	12.8%	30.14%	capable of inhibiting OSM-induced pSTAT3	clear shifts in the fast exchange regime	Minimal toxicity; also recorded: minimal to no cytotoxicity at high concentrations	–	–	–
O=C(O)/C=C/c1cc(-c2ccc3cc[nH]c3c2)c(-c2ccc3cc[nH]c3c2)o1 [SMI-10B13, (E)-3-(4,5-di(1H-Indol-6-yl)furan-2-yl)acrylic Acid]	~7 µM and 6.6 µM	–	32.7%	–	binding to the same site as SMI-10B with a higher affinity	Minimal toxicity; also recorded: minimal to no cytotoxicity at high concentrations	0.136 µM	0.136 µM	32.73%
